Measurements from US9896481B2, “Modified mini-hepcidin peptides and methods of using thereof” (priority 2011, dated 2018).
Read-outs that look alike come from different tables or passages of the source. Starred links: 1 amine or outer side, 2 acyl side, 3 side chain; linkers in the order of their positions; H or OH if unused. Positions of bridges follow the written chain, without caps; N, C: chain ends. Non-standard residues stand in square brackets, D forms with d. Residues, ends and D or L forms follow the SMILES beside them. No end group written: not given here. *: point of attachment. PEG12 = NCCOCCOCCOCCOCCOCCOCCOCCOCCOCCOCCOCCOCCC(=O)O; X1 = O=C(C[C@H](N[*:1])C(c1ccccc1)c1ccccc1)[*:2]; dDip = N[C@@H](C(=O)O)C(c1ccccc1)c1ccccc1; Oic = O=C(O)[C@@H]1C[C@@H]2CCCC[C@@H]2N1; Dip = N[C@H](C(=O)O)C(c1ccccc1)c1ccccc1; Palmitoyl = CCCCCCCCCCCCCCCC(=O)*; X2 = O=C(C1CCC(CN[*:1])CC1)[*:2]; Cysteamide = C(CS[*:3])N[*:1]; Chg = N[C@H](C(=O)O)C1CCCCC1; Phg = N[C@H](C(=O)O)c1ccccc1; Tle = CC(C)(C)[C@H](N)C(=O)O; Inp = O=C(O)C1CCNCC1

Target: T1, ferroportin tagged at the C-terminus with green fluorescent protein (Fpn-GFP) (Mus musculus, UniProt Q9JHI9)
T1 construct: expressed in transfected cells; host or cells: ECR293/Fpn-GFP (stably transfected, ponasterone-inducible)
T1 sequence (Q9JHI9 1-570): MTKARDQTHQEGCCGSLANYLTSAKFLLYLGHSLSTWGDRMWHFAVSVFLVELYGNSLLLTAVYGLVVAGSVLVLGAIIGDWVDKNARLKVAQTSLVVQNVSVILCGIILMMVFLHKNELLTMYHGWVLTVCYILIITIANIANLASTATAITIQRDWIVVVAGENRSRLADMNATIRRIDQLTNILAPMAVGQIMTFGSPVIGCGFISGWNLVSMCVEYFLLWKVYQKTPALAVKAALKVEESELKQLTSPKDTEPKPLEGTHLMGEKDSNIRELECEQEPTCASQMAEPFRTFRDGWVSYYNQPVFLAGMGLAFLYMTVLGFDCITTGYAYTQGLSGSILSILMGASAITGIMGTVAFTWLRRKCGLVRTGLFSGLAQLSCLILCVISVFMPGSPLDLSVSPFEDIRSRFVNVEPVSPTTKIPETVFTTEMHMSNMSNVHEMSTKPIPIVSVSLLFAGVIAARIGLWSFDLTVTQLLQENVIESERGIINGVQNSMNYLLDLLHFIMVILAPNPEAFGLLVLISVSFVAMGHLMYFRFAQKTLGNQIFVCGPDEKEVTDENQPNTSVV
Assay: Flow cytometry of ferroportin-GFP degradation in ECR293/Fpn-GFP cells
Assay type: cell-based
Details: for DC50: read-out: EC50 (the source's name); for hepcidin activity relative to Hep25 (in words): FIGS. 1-4
Experimental: In vitro activity may be measured by the dose-dependent loss of fluorescence of cells engineered to display ferroportin fused to green fluorescent protein as in Nemeth et al. (2006) Blood 107:328-33. Aliquots of cells are incubated for 24 hours with graded concentrations of a reference preparation of Hep25 or a mini-hepcidin. As provided herein, the EC50 values are provided as the concentration of a given compound (e.g. peptide) that elicits 50% of the maximal loss of fluorescence generated by the reference Hep25 preparation.
Mutational studies indicate that C326, the cysteine residue at position 326 of human ferroportin, is the critical residue involved in binding hepcidin. Thus, various N-terminal fragments of Hep25 containing a thiol, i.e. Hep 4-7, Hep3-7, Hep3-8, Hep3-9, Hep1-7, Hep1-8, Hep1-9, and Hep1-10 C7A, were chemically synthesized, refolded and their activities relative to Hep25 were assayed using flow-cytometric quantitation of the ferroportin-GFP degradation, iron efflux estimation based on measurements of cellular ferritin, and radioisotopic iron efflux studies.
The activity of peptides of the present invention was measured by flow cytometry as previously described. See Nemeth et al. (2006) Blood 107:328-333, which is herein incorporated by reference. ECR293/Fpn-GFP, a cell line stably transfected with a ponasterone-inducible ferroportin construct tagged at the C-terminus with green fluorescent protein was used. See Nemeth et al. (2004) Science 306:2090-2093, which is herein incorporated by reference. Briefly, the cells were plated on poly-D-lysine coated plates in the presence of 20 μM FAC, with or without 10 μM ponasterone. After 24 hours, ponasterone was washed off, and cells were treated with peptides for 24 hours. Cells were then trypsinized and resuspended at 1×10^6 cells/ml, and the intensity of green fluorescence was analyzed by flow cytometry. Flow cytometry was performed on FAC SCAN (fluorescence activated cell scanner) Analytic Flow Cytometer (Becton Dickinson, San Jose, Calif.) with […] version 3.3 software (Becton Dickinson). Cells not induced with ponasterone to express Fpn-GFP were used to establish a gate to exclude background fluorescence. Cells induced with ponasterone, but not treated with any peptides, were used as the positive control. Each peptide was tested over the range of concentrations (0, 0.01, 0.03, 0.1, 0.3, 1, 3 and 10 μM). Each peptide treatment was repeated independently 3 to 6 times. For each concentration of peptide, the results were expressed as a fraction of the maximal activity (FHep25) of Hep25 (in the dose range 0.01-10 μM), according to the formula 1−((Fx−FHep25)/(Funtreated−FHep25)), where F was the mean of the gated green fluorescence and x was the peptide.

[1] = read-out: EC50 (nM) in vitro, Table 3
[2] = Table 1, 24 h peptide treatment, 50% of maximal loss of fluorescence by Hep25
[3] = Table 1, 24 h peptide treatment, 50% of maximal loss of fluorescence by Hep25, read-out: EC50
[4] = ferroportin-GFP internalization, FIG. 3

For CCCCCCCCCCCCCCCC(=O)NCCOCCOCCOCCOCCOCCOCCOCCOCCOCCOCCOCCOCCC(=O)N[C@H](Cc1ccccc1)C(=O)N[C@@H](C(=O)N[C@H](CS)C(=O)N[C@@H](C(=O)N1CCC[C@@H]1C(=O)N[C@@H](C(=O)N[C@H](Cc1c[nH]cn1)C(=O)N[C@@H](C(=O)N[C@H](CC(=O)O)C(N)=O)[C@H](C)O)C(c1ccccc1)c1ccccc1)C(C)C)C(C)C [PR51, R4-F-V-C-V-P-Dpa-H-T-D] ({Palmitoyl-PEG12}-[dF][dV][dC][dV][dP][dDip][dH][dT][dD]-NH2), the EC50 [1] was 100 nM.

In the case of CC(C)(C)[C@H](NC(=O)[C@@H](N)CC(=O)O)C(=O)N[C@@H](Cc1c[nH]cn1)C(=O)N1CCC[C@H]1C(=O)N1[C@H](C(=O)N[C@H](C(=O)N[C@@H](CS)C(=O)N[C@H](C(=O)N[C@@H](Cc2ccccc2)C(N)=O)C2CCCCC2)C2CCCCC2)C[C@@H]2CCCC[C@@H]21 [PR11] (H-D[Tle]HP[Oic][Chg]C[Chg]F-NH2), the DC50 [2] is reported as over 3000 nM.

For CC[C@H](C)[C@H](NC(=O)[C@H](CS)NC(=O)[C@@H](NC(=O)[C@@H]1CCCN1C(=O)[C@@H](NC(=O)[C@@H](N)CC(=O)O)C(c1ccccc1)c1ccccc1)[C@@H](C)CC)C(=O)N[C@@H](Cc1ccccc1)C(N)=O [PR40] (H-D[Dip]PICIF-NH2), the EC50 (read-out: EC50, Table 1, 24 h peptide treatment, 50% of maximal loss of fluorescence by Hep25) was 70 nM.

Work on N=C(N)NCCC[C@@H]1NC(=O)C2CCC(CC2)CNC(=O)[C@@H](C(c2ccccc2)c2ccccc2)NC(=O)CNC(=O)[C@@H](N)CSSCCNC(=O)[C@H](C(c2ccccc2)c2ccccc2)NC(=O)C2CCN(CC2)C(=O)C2CCC(CC2)CNC1=O [PR-4] (H-CG[dDip][X2]R[X2][Inp][Dip]-Cysteamide; disulfide 1-C) yielded an EC50 (read-out: EC50) of 2000 nM.

Work on C[C@@H](O)[C@H](NC(=O)[C@@H](N)CC(=O)O)C(=O)N[C@@H](Cc1c[nH]cn1)C(=O)N[C@H](C(=O)N1CCC[C@H]1C(=O)N[C@@H](CS)C(=O)N[C@@H](CS)C(=O)N[C@@H](CS)C(=O)N[C@H](C(N)=O)C(c1ccccc1)c1ccccc1)C(c1ccccc1)c1ccccc1 [PR46] (H-DTH[Dip]PCCC[Dip]-NH2; N-terminus assumed) yielded an EC50 [3] of 80 nM.

For “T2A: Hep25 with alanine substitution T2A (DAHFPICIFCCGCCHRSKCGMCCKT; disulfide (positions not given here); not fully specified (C-terminus); also: four disulfide bonds, pairing not given here; UniProt P81172 60-84, looked up, variant T2A)”, the “hepcidin activity relative to Hep25 (in words)” value was “did not substantially impact hepcidin activity”.

With DTHFPIAIFC-NH2 [Hep10] the “hepcidin activity relative to Hep25 (in words)” value was “quite active”, the “potency relative to Hep25 on a mass basis, times less potent” value [4] was “about 4 times” and the “potency relative to Hep25 on a molar basis, times less potent” value [4] was “about 10 times”.

With CC[C@H](C)[C@H](NC(=O)[C@H](CS)NC(=O)[C@@H](NC(=O)[C@@H]1CCCN1C(=O)C[C@H](NC(=O)[C@H](Cc1c[nH]cn1)NC(=O)[C@@H](NC(=O)[C@@H](N)CC(=O)O)[C@@H](C)O)C(c1ccccc1)c1ccccc1)[C@@H](C)CC)C(=O)N[C@@H](Cc1ccccc1)C(N)=O [F4bhDpa] (H-DTH[X1]PICIF-NH2; N-terminus assumed) the DC50 [2] was 80 nM.

Work on CCCCCCCCCCCCCCCC(=O)NCCOCCOCCOCCOCCOCCOCCOCCOCCOCCOCCOCCOCCC(=O)N[C@@H](C(=O)N[C@@H](C(=O)N[C@H](CS)C(=O)N[C@@H](C(=O)N1CCC[C@@H]1C(=O)N[C@@H](C(=O)N[C@H](Cc1c[nH]cn1)C(N)=O)C(c1ccccc1)c1ccccc1)[C@H](C)CC)[C@H](C)CC)C(c1ccccc1)c1ccccc1 [PR50, R4-Dpa-I-C-I-P-Dpa-H] ({Palmitoyl-PEG12}-[dDip][dI][dC][dI][dP][dDip][dH]-NH2) yielded an EC50 [1] of under 10 nM.

N=C(N)NCCC[C@@H]1NC(=O)C2CCC(CC2)CNC(=O)[C@@H](C(c2ccccc2)c2ccccc2)NC(=O)[C@H]2CCCN2C(=O)[C@@H](N)CSSCCNC(=O)[C@H](C(c2ccccc2)c2ccccc2)NC(=O)C2CCN(CC2)C(=O)C2CCC(CC2)CNC1=O [PR-3] (H-C[dP][dDip][X2]R[X2][Inp][Dip]-Cysteamide; disulfide 1-C) showed an EC50 (read-out: EC50) of 1000 nM.

Work on CCCCCCCCCCCCCCCC(=O)NCCOCCOCCOCCOCCOCCOCCOCCOCCOCCOCCOCCOCCC(=O)N[C@@H](C(=O)N[C@@H](C(=O)N[C@H](CS)C(=O)N[C@@H](C(=O)N1CCC[C@@H]1C(=O)N[C@@H](C(=O)N[C@H](Cc1c[nH]cn1)C(=O)N[C@@H](C(=O)N[C@H](CC(=O)O)C(N)=O)[C@H](C)O)C(c1ccccc1)c1ccccc1)[C@H](C)CC)[C@H](C)CC)C(c1ccccc1)c1ccccc1 [PR48, R4-Dpa-I-C-I-P-Dpa-H-T-D] ({Palmitoyl-PEG12}-[dDip][dI][dC][dI][dP][dDip][dH][dT][dD]-NH2) yielded an EC50 [1] of 50 nM.

In the case of CCCCCCCCCCCCCCCC(=O)NCCOCCOCCOCCOCCOCCOCCOCCOCCOCCOCCOCCOCCC(=O)N[C@H](Cc1ccccc1)C(=O)N[C@@H](C(=O)N[C@H](CS)C(=O)N[C@@H](C(=O)N1CCC[C@@H]1C(=O)N[C@@H](C(=O)N[C@H](Cc1c[nH]cn1)C(N)=O)C(c1ccccc1)c1ccccc1)[C@H](C)CC)[C@H](C)CC [PR49, R4-F-I-C-I-P-Dpa-H] ({Palmitoyl-PEG12}-[dF][dI][dC][dI][dP][dDip][dH]-NH2), the EC50 [1] is reported as under 10 nM.

In the case of CCCCCCCCCCCCCCCC(=O)NCCOCCOCCOCCOCCOCCOCCOCCOCCOCCOCCOCCOCCC(=O)N[C@H](Cc1ccccc1)C(=O)N[C@H](CC(C)C)C(=O)N[C@H](CS)C(=O)N[C@H](CC(C)C)C(=O)N1CCC[C@@H]1C(=O)N[C@@H](C(=O)N[C@H](Cc1c[nH]cn1)C(=O)N[C@@H](C(=O)N[C@H](CC(=O)O)C(N)=O)[C@H](C)O)C(c1ccccc1)c1ccccc1 [PR52, R4-F-L-C-L-P-Dpa-H-T-D] ({Palmitoyl-PEG12}-[dF][dL][dC][dL][dP][dDip][dH][dT][dD]-NH2), the EC50 [1] is reported as under 10 nM.

For CC(C)(C)[C@H](NC(=O)[C@@H](N)CC(=O)O)C(=O)N[C@@H](Cc1c[nH]cn1)C(=O)N[C@H](C(=O)N1[C@H](C(=O)N[C@H](C(=O)N[C@@H](CS)C(=O)N[C@H](C(=O)N[C@@H](Cc2ccccc2)C(N)=O)C2CCCCC2)C2CCCCC2)C[C@@H]2CCCC[C@@H]21)c1ccccc1 [PR10] (H-D[Tle]H[Phg][Oic][Chg]C[Chg]F-NH2), the DC50 [2] was over 3000 nM.

Work on N=C(N)NCCC[C@@H]1NC(=O)C2CCC(CC2)CNC(=O)[C@@H](C(c2ccccc2)c2ccccc2)NC(=O)C2CCN(CC2)C(=O)[C@@H](N)CSSCCNC(=O)[C@H](C(c2ccccc2)c2ccccc2)NC(=O)C2CCN(CC2)C(=O)C2CCC(CC2)CNC1=O [PR-1] yielded an EC50 (read-out: EC50) of 1500 nM.

For CC[C@H](C)[C@H](NC(=O)[C@@H]1CSSC[C@H](N)C(=O)N[C@@H](CC(=O)O)C(=O)N[C@@H]([C@@H](C)O)C(=O)N[C@@H](Cc2c[nH]cn2)C(=O)N[C@@H](Cc2ccccc2)C(=O)N2CCC[C@H]2C(=O)N[C@@H]([C@@H](C)CC)C(=O)N1)C(=O)N[C@@H](Cc1ccccc1)C(N)=O [Cyc-1] (H-CDTHFPICIF-NH2; disulfide 1-8; N-terminus assumed), the EC50 [3] was 300 nM.
